# Experimental data as given in ChEMBL document CHEMBL1157447, “Discovery and biological evaluation of novel alpha-glucosidase inhibitors with in vivo antidiabetic effect” (2008).
# Columns and labels:
# Saccharomyces cerevisiae = assay: Inhibition of alpha glucosidase from baker's yeast at 50 uM
# Rattus norvegicus [1] = assay: Antidiabetic activity in po dosed Streptozotocin induced diabetic Sprague-Dawley rat assessed as decrease in serum glucose level after 60 mins; format: functional; design: concentration or dose not given beside the values
# Rattus norvegicus [2] = assay: Antidiabetic activity in po dosed Streptozotocin induced diabetic Sprague-Dawley rat assessed as decrease in serum glucose level after 120 mins; format: functional; design: scale not given: the % may be the effect or the level left
SMILES,inhibition (Saccharomyces cerevisiae),Activity (Rattus norvegicus [1]),Activity (Rattus norvegicus [2])
COc1ccc(N2C(=O)NC(=O)/C(=C\c3cccn3CCOc3cccc(C)c3)C2=O)cc1Cl,88.7%,5%,23%
"C[C@H]1O[C@H](O[C@H]2[C@H](O)[C@@H](O)[C@@H](OC3[C@@H](CO)OC(O)[C@H](O)[C@H]3O)O[C@@H]2CO)[C@H](O)[C@@H](O)[C@@H]1N[C@H]1C=C(CO)[C@@H](O)[C@H](O)[C@H]1O (single isomer, unassigned)",88.1%,,
N#C/C(=C\Nc1cccc(F)c1)c1nc(-c2cc3ccccc3oc2=O)cs1,75.2%,20%,
Cc1ccc(Nc2nc(N)nc(COc3cccc4cccnc34)n2)cc1,78.9%,20%,
CCc1ccc(N2C(=O)NC(=O)/C(=C\c3cccn3CCOc3cccc(C)c3)C2=O)cc1,86%,20%,
